{"source": "patent US20040019121A1", "about": "“Protein prenyl transferase inhibitors in the treatment of neuroinflammatory disease” (priority 2000, published 2004)", "key": {"[1]": {"tested_on": "brain endothelial cell monolayers (GP8/3.9)", "assay": "T-lymphocyte transendothelial migration through brain endothelial cell monolayers", "format": "cell-based, rat", "description": "(§1) The immortalised Lewis rat brain endothelial cell line GP8/3.9 (Greenwood et al., 1996) was maintained in Ham's F-10 medium supplemented with 17.5% FCS, 7.5 μg/ml endothelial cell growth supplement, 80 μg/ml heparin, 2 mM glutamine, 0.5 μg/ml vitamin C, 100 U/ml penicillin and 100 μg/ml streptomycin.\nLewis rat T-lymphocyte cell lines specific for purified myelin basic protein were prepared as previously described (Pryce et al, 1997). Briefly, lymph nodes were collected from bovine MBP-immunised rats and the T-lymphocytes propagated by periodically alternating antigen activation with IL-2 stimulation. The cell lines express the marker of the CD4^+ T cell subset, are CD45RC^low and recognise MBP in the molecular context of MHC class II determinants (Pryce et al, 1997).\nThe ability of the immortalised cells to support the transendothelial migration of antigen specific T-lymphocytes was determined using a well-characterised assay as described extensively elsewhere (Adamson et al., 1999 and http://www.ucl.ac.uk/ioo/video/ sequence.avi) Briefly, T-lymphocytes were added (2×10^5 cells/well) to 24 well plates containing endothelial cell monolayers. Lymphocytes were allowed to settle and migrate over a 4 h period. To evaluate the level of migration co-cultures were placed on the stage of a phase-contrast inverted microscope housed in a temperature controlled (37° C.), 5% CO2 gassed chamber (Zeiss, Herts, U.K.). A 200×200 μm field was randomly chosen and recorded for 10 min spanning the 4 h time point using a camera linked to a time-lapse video recorder. Recordings were replayed at 160× normal speed and lymphocytes identified and counted which had either adhered to the surface of the monolayer or that had migrated through the monolayer. Lymphocytes on the surface of the monolayer were identified by their highly refractive morphology (phase-bright) and rounded or partially spread appearance. In contrast cells that had migrated through the monolayer were phase-dark, highly attenuated and were seen to probe under the endothelial cells in a distinctive manner (Pryce et al, 1997; Adamson et al, 1999: Etienne et al, 2000). All other data were expressed as a percentage of the control migrations. A minimum of three independent experiments using a minimum of 6 wells per assay were performed. The results are expressed as the means±SEM and significant differences between groups determined by Student±s t-test."}, "[2]": {"tested_on": "brain endothelial cells", "assay": "Adhesion of peripheral lymph node T-lymphocytes to brain endothelia", "format": "cell-based, rat", "details": "10 μM", "description": "as §1\nAdhesion assays were carried out as previously described (Pryce et. al., 1994; Adamson et al., 1999). Briefly, peripheral lymph node-derived cells (PLNC) were isolated and T-lymphocytes obtained after purification on nylon wool columns. These cells which represent non-antigen activated T-lymphocytes are therefore non-migratory but highly adhesive when activated with the mitogen concanavalin A (Pryce et al., 1994, Greenwood and Calder 1993; Male et al., 1994 ). PLNC were activated for 24 h with type V concanavalin A, washed twice in HBSS, and cells labelled with 3 μCi [^3H]-deoxy glucose per 10^6 cells in HBSS for 90 min at 37° C. After washing the cells three times with HBSS they were resuspended in RPMI 1640 medium containing 10% FCS. Endothelial monolayers grown on 96 well plates were prepared by removing the culture medium and washing the cells four times with HBSS. 200 μl of [^3H]-labelled PLNC at a concentration of 1×10^6/ml were then added to each well and incubated at 37° C. for 1.5 h. In each assay, β-emissions from each of 6 replicate blank wells were determined to provide a value for the total amount of radioactivity added per well and to allow calculation of the specific activity of the cells. After incubation, non-adherent cells were removed with four separate washes from the four poles of the well with 37° C. HBSS as previously described (Pryce et al, 1994: Adamson et al., 1999). Adherent PLNC were lysed with 2% SDS, the lysate removed, scintillant added and radioactivity quantitated by spectrometry. Results are expressed as the means±SEM between groups determined by Student's t-test."}, "[3]": {"details": "mice, daily injections of 25 mg/kg i.p.; cited from earlier work"}, "[4]": {"tested_on": "Rho protein", "assay": "Rho protein association with brain endothelial cell membranes (Western blot)", "format": "cell-based, rat", "details": "C3-transferase treatment of brain endothelial cells", "description": "as §1\nIce-cold lysis buffer containing 10 mM Tris-HCl pH7.5, 5 mM MgCl2, 1 mM DTT and 1 mM PMSF was added to cells and incubated on ice for 10 min. Cells were subsequently homogenised and centrifuged at 5000 g for 10 min to remove nuclei. Supernatants were then centrifuged at 100,000 g in a Beckman Ultracentrifuge for 30 min to obtain crude membranes. Membrane pellets were washed with buffer containing 50 mM Tris-HCl pH7.5, 50 mM NaCl, 5 mM MgCl2, 1 mM DTT and 1 mM PMSF and re-centrifuged at 100,000 g for 30 min. Membrane pellets were then resuspended in sample buffer and proteins resolved on 12.5% SDS-PAGE gels. Proteins were electroblotted on nitrocellulose membranes and immunblotted with anti-Rho polyclonal antibody (Santa Cruz, Wilts, UK). Rho proteins within membrane fractions were visualised following incubation with a 1:15,000 dilution of goat anti-rabbit-HRP (Pierce, Chester, UK) and ECL development (Amersham, Bucks,UK).\nIsoprenylation of Rho proteins are essential for their efficient association with cell membranes (Adamson et al, 1992)."}, "[5]": {"details": "10 μM, brain EC treated 24 h prior to and during 4 h co-culture, mean±SEM"}, "[6]": {"details": "10 μM, brain EC treated 48 h prior to and during 4 h co-culture, mean±SEM"}, "[7]": {"details": "24 h treatment plus 90 min adhesion assay"}, "[8]": {"details": "48 h treatment plus 90 min adhesion assay"}}, "data": [{"compound": "COC(=O)[C@H](CCSC)NC(=O)c1ccc(NC[C@@H](N)CS)cc1-c1ccccc1", "note": "[FTI-277]", "values": [{"measurement": "transendothelial lymphocyte migration", "setting": "[1]; [5]", "result": "did not result in a significant alteration"}, {"measurement": "transendothelial lymphocyte migration", "setting": "[1]; [6]", "result": "77.7±4.9 % of control migration"}, {"measurement": "T-lymphocyte adhesion to brain endothelial cells", "setting": "[2]; [7]", "result": "did not have any significant effect"}, {"measurement": "T-lymphocyte adhesion to brain endothelial cells", "setting": "[2]; [8]", "result": "did not have any significant effect"}, {"measurement": "time required to obtain steady state plasma concentrations", "setting": "[3]", "result": 3, "unit": "days"}]}, {"compound": "COC(=O)[C@H](CC(C)C)NC(=O)c1ccc(NC[C@@H](N)CS)cc1-c1cccc2ccccc12", "note": "[GGTI-298]", "values": [{"measurement": "transendothelial lymphocyte migration", "setting": "[1]; [5]", "result": "73.5±6.0 % of control migration"}, {"measurement": "transendothelial lymphocyte migration", "setting": "[1]; [6]", "result": "51.6±3.1 % of control migration"}, {"measurement": "T-lymphocyte adhesion to brain endothelial cells", "setting": "[2]; [7]", "result": "did not have any significant effect"}, {"measurement": "T-lymphocyte adhesion to brain endothelial cells", "setting": "[2]; [8]", "result": "did not have any significant effect"}]}, {"compound": "C3 transferase", "values": [{"measurement": "transendothelial lymphocyte migration", "setting": "[1]; C3 transferase treatment of brain EC, n=12", "result": "18.4±4.1 % of control values"}, {"measurement": "subcellular distribution of Rho proteins", "setting": "[4]", "result": "did not affect"}]}]}
